Data reported in US7439041B2 (Novartis Vaccines and Diagnostics, Inc., priority 2003, dated 2008).

Columns and labels:
PrP^Sc [1] = target: T1, PrP^Sc (Mus musculus, UniProt P04925); type: binding; parameters: key to Western Blot: −: Visually evaluated relative signal intensity; +/−: Visually evaluated relative signal intensity; +: Visually evaluated relative signal intensity; ++: Visually evaluated relative signal intensity; +++: Visually evaluated relative signal intensity; ++++: Visually evaluated relative signal intensity; +++++: Visually evaluated relative signal intensity
PrP^Sc [2] = target: T1, PrP^Sc; type: binding
Target sequence in this assay (P04925 23-230 limits assumed): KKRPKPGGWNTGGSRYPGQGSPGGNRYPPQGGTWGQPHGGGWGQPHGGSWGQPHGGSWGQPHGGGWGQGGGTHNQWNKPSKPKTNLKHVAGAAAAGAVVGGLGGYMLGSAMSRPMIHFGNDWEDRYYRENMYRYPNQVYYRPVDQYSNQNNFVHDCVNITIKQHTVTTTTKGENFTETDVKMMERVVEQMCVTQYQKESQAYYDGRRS

Substance	Western Blot (PrP^Sc [1])	further results
(GG)C(GGG)RPMIHFGNDWEDRYYRENMYR(GGG)C [SEQ ID NO: 46]	+	
(GGG)AKRPKPGG [SEQ ID NO: 104]	+	
(GGG)GPKRKGPK [SEQ ID NO: 73]	+	
(GGG)KARPKPGG [SEQ ID NO: 105]	+	
(GGG)KKAPKAGG [SEQ ID NO: 108]	+	
(GGG)KKAPKPGG [SEQ ID NO: 106]	+	
(GGG)KKKKKKKK (GGGKKKKKKKK) [SEQ ID NO: 85]	+^3	
(GGG)KKRAKAGG [SEQ ID NO: 98]	+	
(GGG)KKRAKPGG [SEQ ID NO: 96]	+ and ++	
(GGG)KKRPAPGG [SEQ ID NO: 107]	+	
(GGG)KKRPKAGG [SEQ ID NO: 97]	+ and ++	
(GGG)KKRPKPGG [SEQ ID NO: 68]	+++	binding to PrPSc in infected mouse brain homogenate samples (Western blot, FIG. 4) (PrP^Sc [1]): strong binding
(GGG)KKRPKPGGGKKRPKPGG [SEQ ID NO: 72]	+	
(GGG)KKRPKPGGGQWNKPSKPKTN [SEQ ID NO: 81]	+	
(GGG)KKRPKPGGWNTGG [SEQ ID NO: 67]	++	
(GGG)KKRPKPGGWNTGGSRYPGQGS [SEQ ID NO: 66]	+	
(GGG)KPSKPK [SEQ ID NO: 80]	−	
(GGG)NKPSKPK [SEQ ID NO: 79]	−	
(GGG)NNKQSPWPTKK [SEQ ID NO: 87]	−	
(GGG)QANKPSKPKTN [SEQ ID NO: 89]	+ and +++	
(GGG)QWNAPSKPKTN [SEQ ID NO: 92]	− and +	
(GGG)QWNKASKAKTN [SEQ ID NO: 95]	−	
(GGG)QWNKASKPKTN [SEQ ID NO: 90]	−	
(GGG)QWNKASKPKTN [SEQ ID NO: 99]	+/−	
(GGG)QWNKPSAPKTN [SEQ ID NO: 93]	− and +	

Substance	Western Blot (PrP^Sc [1])	further results
(GGG)QWNKPSKAKTN [SEQ ID NO: 91]	− and +	
(GGG)QWNKPSKPATN [SEQ ID NO: 94]	− and +	
(GGG)QWNKPSKPKTN [SEQ ID NO: 14]	+++	
(GGG)RPMIHFGNDWEDRYYRENMYR(GG)C [SEQ ID NO: 76]	−	
(GGG)WNKPSKPKT [SEQ ID NO: 75]	−	
(GGGG)C(GG)GGWGQGGGTHNQWNKPSKPKTNLKHV(GGGG)C [SEQ ID NO: 35]	+	
(GGGG)GGWGQGGGTHNQWNKPSKPKTNLKHV [SEQ ID NO: 36]	+	
(KKK)AGAAAAGAVVGGLGG [SEQ ID NO: 65]	++	
(KKK)AGAAAAGAVVGGLGGYMLGSAM [SEQ ID NO: 57]	+	
C(GG)GGWGQGGGTHNQWNKPSKPKTNLKHV(GGGG)C [SEQ ID NO: 40]	+	
DDDAGAAAAGAVVGGLGGYMLGSAM [SEQ ID NO: 83]	−	
DDDAGAAAAGAVVGGLGGYMLGSAMDDD [SEQ ID NO: 86]	−	
DKDKGGVGALAGAAVAAGGDKDK [SEQ ID NO: 88]	−	
GGTHNQWNKPSKPKTN [SEQ ID NO: 54]	+	
GGWGQGGGTHNQWNKPSKPKTN [SEQ ID NO: 53]	+	
GGWGQGGGTHNQWNKPSKPKTNLKHV(GGGG) [SEQ ID NO: 37]	+	
KKKAGAAAAGAVVGGLGGYMLGSAMDDD [SEQ ID NO: 82]	−	
KKKAGAAAAGAVVGGLGGYMLGSAMKKK [SEQ ID NO: 84]	+	
PHGGGWGQ [SEQ ID NO: 71]	−	
PHGGGWGQHGGSWGQPHGGSWGQ [SEQ ID NO: 69]	−	
PHGGGWGQPHGGSWGQ [SEQ ID NO: 70]	−	
QWNKPSKPKTN(GGG) [SEQ ID NO: 50]	+	
QWNKPSKPKTN(GGG)QWNKPSKPKTN [SEQ ID NO: 51]	+++	ELISA A405nm (PrP^Sc [2]): .923
QWNKPSKPKTNLKHV(GGG) [SEQ ID NO: 77]	++	
RPMIHFGNDWEDRYYRENMYR(GGG) [SEQ ID NO: 44]	−	
